Assay results reported in publication PMC12284513, “Unique structural features define the decarboxylation activity of a CYP152 fatty acid decarboxylase from Lacicoccus alkaliphilus” (The Journal of Biological Chemistry, 2025).
“And” between values parts separate entries of the source, which are not always exact repeats. Identical values can stand only once. Like-named read-outs stand apart in the source and are kept apart here.

How the values were obtained:
OleTJE L176I = experiment: Fatty acid bioconversion with H2O2 as co-substrate (alkene by GC-MS, hydroxy products by HPLC-MS); type: biochemical, Jeotgalicoccus sp. 8456; conditions: 200 μM substrate, 400 μM H2O2
Procedure: A reaction was typically quenched by adding 2-fold reaction volume of ethyl acetate which contained 30 μM of tetradecane as an internal standard. The reaction mixtures were vortexed for 1 min and then centrifuged at 12,000 rpm, 4 °C for 10 min to separate an organic and an aqueous phase. The organic phase was injected into an Agilent gas chromatography system (GC-MS) (Agilent 7890B equipped with Agilent 5977B MSD) equipped with a HP5-MS column (30 m × 0.25 mm × […]) (Agilent), and helium was used as a carrier gas. The oven conditions for C10FA and 1-nonene (C9 alkene) were ramped up from 60 to 240 °C with a rate of 19 ° C min^−1 and held at 240 °C for 1 min. […] For C18FA and 1-heptadecene (C17 alkene), the oven was ramped up from 60 to 250 °C with a rate of 22 °C min^−1 and hold at 250 °C for 4 min. For C20FA and 1-nonadecene (C19 alkene), the oven was ramped up from 100 to 250 °C with a rate of 23 °C min^−1 and held at 250 °C for 6 min. The response of target compounds was normalized with signals of the internal standard. The concentration of each compound was calculated based on a standard calibration curve.
For analyzing hydroxylated products of fatty acids, the reactions were quenched by adding an equal volume of acetonitrile, centrifuged, and filtrated. The analytes (10 μl) were injected into a liquid chromatography coupled with diode array and single quadrupole mass spectroscopy detection (LC-DAD/MS) (Agilent 1290 Infinity II LC System equipped with DAD, Single Quadrupole Mass Spectrometers system). A Zorbax eclipse plus C18 column (5 μm, 4.6 × 250 mm) (Agilent Technology) was used for separation. The mobile phase system A was water with 0.1% (v/v) formic acid, and system B was acetonitrile with 0.1% (v/v) formic acid.
All fatty acids were prepared in absolute EtOH at 20 mM as stock solutions. The reaction was carried out in 50 mM NaH2PO4 buffer with 300 mM NaCl, pH 7.5, with 2.5 or 10% (v/v) of EtOH, 200 μM of a substrate, and 400 μM of H2O2. The reactions were performed at 25 °C for 1 h, and then the alkene product was measured using GC-MS after the reactions were quenched and extracted with two-fold volume of ethyl acetate.
(§1) Site-directed mutagenesis of I178L of OleTLA and […] of OleTJE was done with overlaping PCR that used OleTLA or OleTJE plasmids as templates (Table S4). The PCR products were treated with DpnI in cut smart buffer at 37 °C for 16 h, transformed into E. coli XL−1 blue competent cells and grown at 37 °C on LB agar containing 50 μg/ml ampicillin. The plasmids of selected colonies were extracted for sequence verification. The plasmid containing the correct sequence was transformed into E. coli BL21 (DE3) for enzyme expression. The expression and purification methods of variants were the same as those of wild-type OleTLA and OleTJE.

OleTJE [1] = biological target: T1, OleTJE (Jeotgalicoccus sp. ATCC 8456, UniProt E9NSU2); parameters: method as in PMID 28276499; conditions: C14FA decarboxylation; cited from earlier work
T1 sequence (E9NSU2 1-422): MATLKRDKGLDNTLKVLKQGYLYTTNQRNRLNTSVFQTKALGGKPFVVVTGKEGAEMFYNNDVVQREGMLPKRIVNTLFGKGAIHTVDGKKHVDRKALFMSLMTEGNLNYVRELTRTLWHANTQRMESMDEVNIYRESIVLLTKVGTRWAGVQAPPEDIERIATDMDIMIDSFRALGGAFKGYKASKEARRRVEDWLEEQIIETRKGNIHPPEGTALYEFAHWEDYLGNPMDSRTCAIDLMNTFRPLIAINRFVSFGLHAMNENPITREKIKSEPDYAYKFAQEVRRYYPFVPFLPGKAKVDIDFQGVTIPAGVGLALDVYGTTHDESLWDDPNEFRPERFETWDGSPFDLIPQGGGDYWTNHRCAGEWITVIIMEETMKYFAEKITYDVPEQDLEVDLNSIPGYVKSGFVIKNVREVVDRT

OleTLA [2] = biological target: T2, OleTLA (Lacicoccus alkaliphilus, UniProt A0A1M7CBV6); experiment: Substrate binding by isothermal titration calorimetry (ITC); conditions: pH 7.5, 25 °C
T2 sequence (A0A1M7CBV6 1-424): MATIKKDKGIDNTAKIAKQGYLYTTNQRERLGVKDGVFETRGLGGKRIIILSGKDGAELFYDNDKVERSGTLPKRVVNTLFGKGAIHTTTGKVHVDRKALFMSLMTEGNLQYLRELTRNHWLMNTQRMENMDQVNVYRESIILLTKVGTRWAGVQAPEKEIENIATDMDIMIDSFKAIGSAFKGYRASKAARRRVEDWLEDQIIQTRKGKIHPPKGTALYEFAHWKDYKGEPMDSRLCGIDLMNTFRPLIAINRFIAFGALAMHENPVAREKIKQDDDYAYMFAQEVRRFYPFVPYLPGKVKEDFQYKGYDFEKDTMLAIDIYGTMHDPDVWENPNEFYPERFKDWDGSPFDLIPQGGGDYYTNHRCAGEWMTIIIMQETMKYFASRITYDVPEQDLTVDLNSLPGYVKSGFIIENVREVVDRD
Procedure: (§2) The enzyme solution was filled into a syringe while the C16FA solution was filled into the ITC cell. The reactions were constantly stirred at 750 rpm while controlling the temperature at 25 °C during titration. A total of 19 enzyme injections were added into the substrate solution. […] For the other 18 injections, 2 μl of the enzyme solution was added with […] to ensure that the conditions are under equilibrium. The data were processed and analyzed using the Microcal PEAQ-ITC analysis software to calculate the Kd value based on a single-site binding model.

OleTLA [3] = biological target: T2, OleTLA; experiment: Steady-state kinetics of C16FA decarboxylation with H2O2, C15 alkene by GC-MS; type: biochemical; conditions: for kcat / Km: 400 μM H2O2, pH 7.5, 25 °C
Procedure: (§3) Under specific times between 0.1 to 2 min, the reaction samples were taken and quenched by adding an equal volume of ethyl acetate. The ethyl acetate layer would contain the C15 alkene product, which was measured using GC-MS. Values of initial rates were plotted against substrate concentrations to analyze for Km and Vmax values using the Michaelis–Menten equation by GraphPad Prism software version 10.

OleTJE [4] = biological target: T1, OleTJE; experiment: as above; type: biochemical, Jeotgalicoccus sp. 8456; conditions: for Km / kcat: 400 μM H2O2, pH 7.5, 25 °C
Procedure: as §3

OleTJE [5] = biological target: T1, OleTJE; experiment: Substrate binding by isothermal titration calorimetry (ITC); parameters: species or system Jeotgalicoccus sp. 8456; conditions: pH 7.5, 25 °C
Procedure: as §2, with “The” for “The enzyme solution was filled into a syringe while the C16FA solution was filled into the ITC cell. The”

OleTLA I178L = OleTLA I178L (Lacicoccus alkaliphilus, UniProt A0A1M7CBV6, I178L); experiment: Steady-state kinetics of C16FA decarboxylation with H2O2, C15 alkene by GC-MS; type: biochemical; conditions: 10% (v/v) EtOH, 400 μM H2O2, pH 7.5, 25 °C
Procedure: as §3, §1

OleTLA [6] = biological target: T2, OleTLA; experiment: Equilibrium substrate binding by heme spectral change (absorbance at 390 nm); conditions: read-out: Kd from absorbance changes at 390 nm

CCCCCCCCCCCCCC(=O)O [C14FA, tetradecanoic acid]
Decarboxylation activity of OleTJE L176I compared to that of OleTJE wild type (OleTJE L176I): less than 1%
kcat (OleTJE [1]): 1.18 s⁻¹

CCCCCCCCCCCCCCCC(=O)O [C16FA, hexadecanoic acid]
Kd (OleTLA [2]; 2.5% (v/v) EtOH): 950 ± 140 nM
TΔS (OleTLA [2]; 2.5% (v/v) EtOH): 38.10 ± 2.65 kcal/mol
ΔG (OleTLA [2]; 2.5% (v/v) EtOH): -8.22 ± 0.08 kcal/mol
ΔH (OleTLA [2]; 2.5% (v/v) EtOH): 29.97 kcal/mol and 29.97 ± 2.93 kcal/mol
Kd (OleTLA [2]; 10% (v/v) EtOH): 1260 ± 230 nM
TΔS (OleTLA [2]; 10% (v/v) EtOH): 58.93 ± 2.00 kcal/mol
ΔG (OleTLA [2]; 10% (v/v) EtOH): -8.06 ± 0.11 kcal/mol
ΔH (OleTLA [2]; 10% (v/v) EtOH): 50.83 kcal/mol and 50.83 ± 2.10 kcal/mol
Enhancement of kcat in 10% (v/v) EtOH compared to 2.5% (v/v) EtOH (OleTLA [3]): around 4.3 fold
kcat (OleTLA [3]; 2.5% (v/v) EtOH): 0.343 ± 0.0083 s⁻¹
Km (OleTLA [3]; 2.5% (v/v) EtOH, read-out: KM): 5.4 ± 0.6 µM
Km (OleTLA [3]; 10% (v/v) EtOH): 16.7 ± 0.6 µM
kcat (OleTLA [3]; 10% (v/v) EtOH): 1.47 ± 0.0267 s⁻¹
Enhancement of kcat in 10% (v/v) EtOH compared to 2.5% (v/v) EtOH (OleTJE [4]): ~1.4 fold
Km (OleTJE [4]; 2.5% (v/v) EtOH): 8.6 ± 1.4 µM
kcat (OleTJE [4]; 2.5% (v/v) EtOH): 0.647 ± 0.015 s⁻¹
Km (OleTJE [4]; 10% (v/v) EtOH): 9.6 ± 0.6 µM
kcat (OleTJE [4]; 10% (v/v) EtOH): 0.918 ± 0.0033 s⁻¹
Decarboxylation activity of OleTJE L176I compared to that of OleTJE wild type (OleTJE L176I): less than 5%
Kd (OleTJE [5]; 2.5% (v/v) EtOH): 1930 ± 160 nM
TΔS (OleTJE [5]; 2.5% (v/v) EtOH): 16.13 ± 2.15 kcal/mol
ΔG (OleTJE [5]; 2.5% (v/v) EtOH): -7.78 ± 0.05 kcal/mol
Kd (OleTJE [5]; 10% (v/v) EtOH): 440 ± 10 nM
TΔS (OleTJE [5]; 10% (v/v) EtOH): -5.15 ± 2.74 kcal/mol
ΔG (OleTJE [5]; 10% (v/v) EtOH): -8.67 ± 0.01 kcal/mol
ΔH (OleTJE [5]; 10% (v/v) EtOH): -12.19 ± 5.11 kcal/mol
Km (OleTLA I178L): 25 ± 0.6 µM
kcat (OleTLA I178L): 1.6 ± 0.0417 s⁻¹
Kd (OleTLA [6]; 2.5% (v/v) EtOH): 320 nM
Kd (OleTLA [6]; 10% (v/v) EtOH): 530 nM
Kd (OleTLA [6]; buffer (0% (v/v) EtOH)): 370 nM
